# Assay results as given in ChEMBL document CHEMBL1140289, “Studies on the apoptotic activity of natural and synthetic retinoids: discovery of a new class of synthetic terphenyls that potently support cell growth and inhibit apoptosis in neuronal and HL-60 cells” (2005).
# Key:
# HL-60 [1] = assay: Effect (1 uM) on HL-60 cell growth cultured for 72 hours in nonsupplemented serum-free medium; assay type: functional, Homo sapiens
# HL-60 [2] = assay: Effect (1 uM) on HL-60 cell apoptosis cultured for 72 hours in nonsupplemented serum-free medium; assay type: functional, Homo sapiens
compound,measurement,setting,value
CC1=C(/C=C/C(C)=C/C=C/[C@](C)(O)[C@@H](O)CO)C(C)(C)CCC1,Activity,HL-60 [1],149 no. of living cells (10E3) /mL
same,Apoptosis,HL-60 [2],37%
CC(=O)OC[C@H](OC(C)=O)[C@@](C)(O)/C=C/C=C(C)/C=C/C1=C(C)CCCC1(C)C,Activity,HL-60 [1],207 no. of living cells (10E3) /mL
same,Apoptosis,HL-60 [2],30%
COc1cc(-c2ccccc2-c2ccc(C(=O)O)cc2)cc(OC)c1OC,Activity,HL-60 [1],220 no. of living cells (10E3) /mL
same,Apoptosis,HL-60 [2],22%
COc1cc(/C=C\c2ccc(C(=O)O)cc2)cc(OC)c1OC,Activity,HL-60 [1],100 no. of living cells (10E3) /mL
same,Apoptosis,HL-60 [2],42%
CC1(C)CCC(C)(C)c2cc(/C=C/c3ccc(C(=O)O)cc3)ccc21,Activity,HL-60 [1],155 no. of living cells (10E3) /mL
same,Apoptosis,HL-60 [2],36%
COc1cc(-c2cccc(-c3ccc(C(=O)O)cc3)c2)cc(OC)c1OC,Activity,HL-60 [1],350 no. of living cells (10E3) /mL
same,Apoptosis,HL-60 [2],17%
CC1(C)CCC(C)(C)c2cc(/C=C\c3ccc(C(=O)O)cc3)ccc21,Activity,HL-60 [1],100 no. of living cells (10E3) /mL
same,Apoptosis,HL-60 [2],43%
CC(=O)OC[C@H](OC(C)=O)/C(C)=C/C=C/C(C)=C/C=C1/C(C)=CCCC1(C)C,Activity,HL-60 [1],129 no. of living cells (10E3) /mL
same,Apoptosis,HL-60 [2],40%
CC1=CCCC(C)(C)\C1=C/C=C(C)/C=C/C=C(\C)[C@@H](O)CO,Activity,HL-60 [1],181 no. of living cells (10E3) /mL
same,Apoptosis,HL-60 [2],34%
COc1cc(/C=C/c2ccc(C(=O)O)cc2)cc(OC)c1OC,Activity,HL-60 [1],166 no. of living cells (10E3) /mL
same,Apoptosis,HL-60 [2],36%
CC(=O)CC[C@H](O)[C@@](C)(O)/C=C/C=C(C)/C=C/C1=C(C)CCCC1(C)C,Activity,HL-60 [1],129 no. of living cells (10E3) /mL
same,Apoptosis,HL-60 [2],41%
COc1cc(-c2ccc(-c3ccc(C(=O)O)cc3)cc2)cc(OC)c1OC,Activity,HL-60 [1],300 no. of living cells (10E3) /mL
same,Apoptosis,HL-60 [2],18%
